# Measurements published in patent US7981893B2, “Heteroaryl compounds, compositions thereof, and methods of treatment therewith” (Signal Pharmaceuticals, LLC, priority 2006, dated 2011).
row,SMILES,melting point
1,Cl.NCc1nc(-c2ccc(-c3cnc4[nH]c(=O)n(CC5CCCCC5)c4n3)cc2)n[nH]1,326 to 329 °C
2,Cl.O=c1[nH]c2ncc(-c3ccc(O)cc3)nc2n1CC1CCCN1 (stereo not drawn),178 to 180 °C
3,Cl.O=c1[nH]c2ncc(-c3ccc(-c4nnc[nH]4)cc3)nc2n1CCN1CCCCC1,194 to 197 °C
4,"CC(c1ccccc1)n1c(=O)[nH]c2ncc(-c3ccnc4ccccc34)nc21 (stereo not drawn) [Compound 70, 1-(1-phenylethyl)-6-(quinolin-4-yl)-1H-imidazo[4,5-b]pyrazin-2(3H)-one]",252 to 254 °C
5,"COc1ccccc1-n1c(=O)[nH]c2ccc(-c3cccc(O)c3)nc21 [Compound 92, 5-(3-Hydroxyphenyl)-3-(2-methoxyphenyl)-1H-imidazo[4,5-b]pyridin-2(3H)-one]",240 to 242 °C
6,"O=c1[nH]c2ncc(-c3ccc(O)cc3)nc2n1C1CCCCC1 [Compound 95, 1-Cyclohexyl-6-(4-hydroxyphenyl)-1H-imidazo[4,5-b]pyrazin-2(3H)-one]",318 to 320 °C
7,"NC(=O)c1ccc(-c2cnc3[nH]c(=O)n(CC4CCCCC4)c3n2)cc1 [Compound 96, 4-(3-(Cyclohexylmethyl)-2-oxo-2,3-dihydro-1H-imidazo[4,5-b]pyrazin-5-yl)benzamide]",293 to 295 °C
8,"COC(=O)c1ccc(-c2cnc3[nH]c(=O)n(CC4CCCCC4)c3n2)cc1 [Compound 97, Methyl 4-(3-(cyclohexylmethyl)-2-oxo-2,3-dihydro-1H-imidazo[4,5-b]pyrazin-5-yl)benzoate]",253 to 255 °C
9,"O=c1[nH]c2ncc(-c3ccncc3)nc2n1CC1CCCCC1 [Compound 98, 1-(Cyclohexylmethyl)-6-(pyridin-4-yl)-1H-imidazo[4,5-b]pyrazin-2(3H)-one]",267 to 269 °C
10,"CNC(=O)c1ccc(-c2cnc3[nH]c(=O)n(CC4CCCCC4)c3n2)cc1 [Compound 99, 4-(3-(Cyclohexylmethyl)-2-oxo-2,3-dihydro-1H-imidazo[4,5-b]pyrazin-5-yl)-N-methylbenzamide]",273 to 275 °C
11,"O=c1[nH]c2ncc(-c3ccc(CO)cc3)nc2n1CC1CCCCC1 [Compound 100, 1-(Cyclohexylmethyl)-6-(4-(hydroxymethyl)phenyl)-1H-imidazo[4,5-b]pyrazin-2(3H)-one]",275 to 277 °C
12,"O=c1[nH]c2ncc(-c3cccnc3)nc2n1CC1CCCCC1 [Compound 101, 1-(Cyclohexylmethyl)-6-(pyridin-3-yl)-1H-imidazo[4,5-b]pyrazin-2(3H)-one]",205 °C
13,"O=c1[nH]c2ncc(-c3ccc4[nH]ccc4c3)nc2n1CC1CCCCC1 [Compound 103, 1-(Cyclohexylmethyl)-6-(1H-indol-5-yl)-1H-imidazo[4,5-b]pyrazin-2(3H)-one]",343 to 346 °C
14,"CC(C)NC(=O)c1ccc(-c2cnc3[nH]c(=O)n(CC4CCCCC4)c3n2)cc1 [Compound 104, 4-(3-(Cyclohexylmethyl)-2-oxo-2,3-dihydro-1H-imidazo[4,5-b]pyrazin-5-yl)-N-isopropylbenzamide]",264 to 268 °C
15,"O=c1[nH]c2ncc(-c3ccc(O)cc3)nc2n1CCO [Compound 105, 1-(2-Hydroxyethyl)-6-(4-hydroxyphenyl)-1H-imidazo[4,5-b]pyrazin-2(3H)-one]",308 to 310 °C
16,"O=c1[nH]c2ncc(-c3ccc4cc[nH]c4c3)nc2n1CC1CCCCC1 [Compound 106, 1-(Cyclohexylmethyl)-6-(1H-indol-6-yl)-1H-imidazo[4,5-b]pyrazin-2(3H)-one]",359 to 363 °C
17,"CN1CCC(Cn2c(=O)[nH]c3ncc(-c4ccc(O)cc4)nc32)CC1 [Compound 109, 6-(4-Hydroxyphenyl)-1-((1-methylpiperidin-4-yl)methyl)-1H-imidazo[4,5-b]pyrazin-2(3H)-one]",292 to 294 °C
18,"N#Cc1ccc(-c2cnc3[nH]c(=O)n(CC4CCCCC4)c3n2)cc1 [Compound 110, 4-(3-(Cyclohexylmethyl)-2-oxo-2,3-dihydro-1H-imidazo[4,5-b]pyrazin-5-yl)benzonitrile]",255 to 257 °C
